# In publication PMC5845165, “Pharmacokinetic Study of 7 Compounds Following Oral Administration of Fructus Aurantii to Depressive Rats” (Frontiers in Pharmacology, 2018):
# Assays:
# [1] = Qualitative LC/MS-MS identification in hippocampus and cortex after oral ZQ extract; format: in vivo, Sprague–Dawley rats; settings: acute depressive rats, 0.5 h after oral ZQ extract 20 g/kg
# Protocol: To identify the main active compounds of ZQ in target tissue, six rats subjected to FST were sacrificed under anesthesia 0.5 h after oral administration of ZQ extract (20 g/kg), and then the hippocampal and cortex tissue was separated rapidly from the brain on an ice tray and stored at -80°C. All tissues (∼50.0 mg) were homogenized with 1.5 mL of ice-cold 0.9% saline.
# (§1) Sample (200 μL) and 10 μL of mixed IS solution containing sulfamethoxazole (754 ng/mL) and honokiol (274 ng/mL) was added to Eppendorf tubes and extracted with 1 mL acetonitrile. The mixed solution was vortexed for 3 min and centrifuged at 10000 rpm for 10 min at 4°C to acquire the supernatant. The supernatant (800 μL) was moved to a clean Eppendorf tube, and then desiccated under a flow of nitrogen at 40°C. Finally, the residue was redissolved in 100 μL acetonitrile/water (90:10, v/v) with vortex-mixing for 3 min and centrifuged at 13000 rpm for 10 min. A 10 μL aliquot of the sample was injected into the LC/MS/MS system for analysis.
# [2] = Pharmacokinetic study in plasma of acute depressive rats after oral ZQ extract (LC-MS/MS); format: in vivo, Sprague–Dawley rats; settings: oral ZQ extract 20 g/kg; for AUC / AUC(0-t) / Cmax / Tmax / half-life: Sprague-Dawley, rat; for AUC: AUC0-∞; for half-life: male, po, 20 g/kg
# Protocol: as §1
# All of the rats were subjected to FST for 24 h before oral administration of the ZQ extract (20 g/kg). Plasma samples (about 0.5 mL) were gathered in a heparinized 1.5 mL Eppendorf tube from the venous plexus of the eye socket at 0.083, 0.25, 0.5, 0.75, 1.0, 1.5, 2.0, 3.0, 4.0, 6.0, 8.0, 12.0, and 24.0 h under anesthesia. Each sample was immediately centrifuged at 10000 rpm for 15 min to acquire the plasma. At last, the plasma was immediately placed at -80°C until measure.
# All data were expressed as the mean ± SD. The plasma concentration of the 7 compounds during the experiment was calculated according to the daily calibration curve. The pharmacokinetic parameters, including Cmax (the peak drug plasma concentration), Tmax (the time to Cmax), AUC0-t (the area under the plasma concentration-time curve from 0 to time), AUC0-∞ (the area under the plasma concentration-time curve from 0 to time infinity), and t1/2 (the elimination half-life) were calculated by performing a non-compartment model using WinNonlin Professional Edition Version 2.1 (Pharsight Corporation, Sunnyvale, CA, United States). The immobile time in the FST test was evaluated by one-way ANOVA. Statistical significance was denoted at p < 0.05. Statistical analysis was operated by GraphPad Prism 5 software.
# [3] = Stability of the analytes in rat plasma (QC samples); format: in vitro ADME; settings: deviation from nominal conc
# Protocol: The stabilities of the 7 analytes in rat plasma was evaluated by assaying six replicates of QC samples at low, middle, and high concentrations in practical experimental conditions: samples post-preparation stored in auto-sampler condition for 12 h, and storage at -80°C for 1 month. The freeze- thaw stability was determined after the experience of three freeze-thaw cycles (from -80°C to room temperature). Samples were identified as stable if the accuracy bias was within 15.0% of the nominal concentration.
# [4] = parameters: method as in Tong et al., 2012; settings: oral ZQ 3.2 g/kg, ref Tong et al., 2012; cited from earlier work
# [5] = system: rats undergoing the forced swimming test (FST); assay: Forced swimming test (FST), immobility time after acute oral treatment; format: in vivo, Sprague–Dawley rats; settings: Fluoxetine 20 mg/kg, single oral dose 0.5 h before test (Figure 1A); p < 0.05 vs vehicle
# Protocol: ZQ lyophilized powder or fluoxetine (Eli Lilly, United States) was dissolved with saline. To evaluate dose-dependent effects, ZQ (5, 10, 20 g/kg) or fluoxetine (20 mg/kg) was orally administered as a single dosage 0.5 h before the test. To study the precise relationship between antidepressant effects and pharmacokinetics, ZQ (20 g/kg) was orally administered as a single dose 0.5, 1, 2, or 4 h before the test. Similarly, vehicle rats were orally administered an equal volume of saline using the identical procedure.
# The swimming tests were conducted according to a previously described method ([Flores-Burgess et al., 2017]) with minor modifications. In brief, all experiments were operated between 12:00 h and 15:00 h in the light cycle. Each rat was individually put into a vertical glass cylinder with a diameter of 20 cm, water depth of 30 cm and water temperature of 25°C. A 15-min forced swimming test was conducted 24 h before the 5-min test. Each rat was deemed to be immobile when it stopped scrabbling, remained floating stilly in the water and only made necessary struggling to maintain its head over water. The total duration of immobility was recorded during the 5-min test.
# [6] = plasma, male SD rats subjected to FST, mean ± SD, n = 6
Compound,absorption into hippocampus and cortex (qualitative) [1],"AUC [2, 6] [ng·h/mL]","AUC(0-t) [2, 6] [ng·h/mL]","Cmax [2, 6] [ng/mL]","Tmax [2, 6] [h]","half-life [2, 6] [h]","RE, -80°C for 1 month ([3]; high QC level) [%]","RE, Room temperature for 12 h ([3]; high QC level) [%]","RE, Three freeze-thaw cycles ([3]; high QC level) [%]","RE, -80°C for 1 month ([3]; low QC level) [%]","RE, Room temperature for 12 h ([3]; low QC level) [%]","RE, Three freeze-thaw cycles ([3]; low QC level) [%]","RE, -80°C for 1 month ([3]; middle QC level) [%]","RE, Room temperature for 12 h ([3]; middle QC level) [%]","RE, Three freeze-thaw cycles ([3]; middle QC level) [%]",AUC0-∞ in healthy rats compared with this study [4],immobility time in the FST [5] [s],AUC0-∞ relative to other flavonoids ([2]; depressive rats),"T1/2 [2, 6] [h]"
"C[C@@H]1O[C@@H](OC[C@H]2O[C@@H](Oc3cc(O)c4c(c3)O[C@H](c3ccc(O)cc3)CC4=O)[C@H](O)[C@@H](O)[C@@H]2O)[C@H](O)[C@H](O)[C@H]1O [Narirutin, narirutin]",absorbed into the hippocampus and cortex,44.9 ± 9.99,42.6 ± 9.64,31.1 ± 8.83,0.33 ± 0.13,1.49 ± 0.42,3.03,5.53,7.94,8.49,12.43,9.69,7.57,1.84,8.89,,,,
"COc1ccc([C@@H]2CC(=O)c3c(O)cc(O[C@@H]4O[C@H](CO)[C@@H](O)[C@H](O)[C@H]4O[C@@H]4O[C@@H](C)[C@H](O)[C@@H](O)[C@H]4O)cc3O2)cc1O [Neohesperidin, neohesperidin]",absorbed into the hippocampus and cortex,239 ± 95.6,234 ± 87.3,90.8 ± 48.5,0.29 ± 0.1,2.02 ± 0.77,2.03,10.82,-0.30,3.31,-5.80,7.23,3.13,7.28,5.88,higher than the data obtained in our experiment,,,
"O=C1C[C@@H](c2ccc(O)cc2)Oc2cc(O)cc(O)c21 [Naringenin, naringenin]",absorbed into the hippocampus and cortex,226 ± 64.9,188 ± 38.9,78.1 ± 22.2,0.42 ± 0.13,4.37 ± 1.19,3.14,-2.56,-2.59,-7.39,5.64,-8.95,-6.00,10.67,-4.45,higher than the data obtained in our experiment,,,
"COc1ccc([C@@H]2CC(=O)c3c(O)cc(O[C@@H]4O[C@H](CO[C@@H]5O[C@@H](C)[C@H](O)[C@@H](O)[C@H]5O)[C@@H](O)[C@H](O)[C@H]4O)cc3O2)cc1O [Hesperidin, hesperidin]",absorbed into the hippocampus and cortex,179 ± 43.9,136 ± 23.7,46 ± 7.32,0.42 ± 0.13,2.93 ± 0.88,0.02,4.88,-1.62,6.36,-1.88,4.08,4.15,0.91,5.80,,,,
"C[C@@H]1O[C@@H](O[C@H]2[C@H](Oc3cc(O)c4c(c3)O[C@H](c3ccc(O)cc3)CC4=O)O[C@H](CO)[C@@H](O)[C@@H]2O)[C@H](O)[C@H](O)[C@H]1O [Naringin, naringin]",absorbed into the hippocampus and cortex,312 ± 89.5,293 ± 92,104 ± 18.8,0.42 ± 0.13,1.67 ± 0.57,4.57,5.94,0.56,12.29,5.84,9.33,0.21,6.83,4.34,higher than the data obtained in our experiment,,,
"COc1ccc(-c2cc(=O)c3c(OC)c(OC)c(OC)c(OC)c3o2)cc1OC [Nobiletin, nobiletin]",absorbed into the hippocampus and cortex,153 ± 40,151 ± 40.6,53.9 ± 14.3,0.38 ± 0.14,1.28 ± 0.87,-1.14,4.48,-6.73,-9.94,-4.37,-7.88,-8.19,5.03,-7.62,,,,
"CNCCC(Oc1ccc(C(F)(F)F)cc1)c1ccccc1 (stereo not drawn) [Fluoxetine, fluoxetine]",,,,,,,,,,,,,,,,,116.07 ± 28.65,,
COc1ccc2ccc(=O)oc2c1CC(O)C(C)(C)O (stereo not drawn) [Meranzin hydrate],absorbed into the hippocampus and cortex,1710 ± 350,1480 ± 259,222 ± 53.9,1.25 ± 0.42,> 7.3,9.41,7.34,3.48,6.97,11.26,11.95,7.29,2.66,-13.99,,,at least fivefold higher,7.31 ± 1.51
